What was measured:
[1] = system: Phakopsora pachyrhizi (F129L); experiment: Protective control of soybean rust on soybeans (PHAKPA P2); format: in vivo; conditions: for % PHAKPA (F129L) Disease level P2 at 4 ppm: protective P2, 4 ppm; for % PHAKPA (F129L) Disease level P2 at 4 ppm / % PHAKPA (F129L) Disease level P2 at 16 ppm: soybean rust F129L; for % PHAKPA (F129L) Disease level P2 at 16 ppm: protective P2, 16 ppm
[2] = system: Phakopsora pachyrhizi (F129L); experiment: Protective control of soybean rust on soybeans (PHAKPA P6); format: in vivo; conditions: for % PHAKPA (F129L) Disease level P6 at 4 ppm: protective P6, 4 ppm; for % PHAKPA (F129L) Disease level P6 at 4 ppm / % PHAKPA (F129L) Disease level P6 at 16 ppm: soybean rust F129L; for % PHAKPA (F129L) Disease level P6 at 16 ppm: protective P6, 16 ppm
[3] = P2 protective, % diseased leaf area
[4] = P6 protective, % diseased leaf area

| Compound | PHAKPA (F129L) Disease level (%) P2 at 1 ppm ([1]; P2 protective, 1 ppm, % diseased leaf area) | PHAKPA (F129L) Disease level (%) P6 at 4 ppm ([2]; P6 protective, 4 ppm, % diseased leaf area) | PHAKPA (F129L) Disease level (%) P2 at 16 ppm [1, 3] | PHAKPA (F129L) Disease level (%) P6 at 16 ppm [2, 4] | % PHAKPA (F129L) Disease level P2 at 4 ppm [1] | % PHAKPA (F129L) Disease level P2 at 16 ppm [1] | % PHAKPA (F129L) Disease level P6 at 4 ppm [2] | % PHAKPA (F129L) Disease level P6 at 16 ppm [2] |
| --- | --- | --- | --- | --- | --- | --- | --- | --- |
| CNC(=O)/C(=N/OC)c1cccc(C)c1CO/N=C(\SC)c1cccc(C(F)(F)F)c1 [drawing 984, reference compound] | 32% | 43% | – | – | – | – | – | – |
| CO/N=C(/C(=O)OC)c1ccccc1CO/N=C(\C)c1ccc(C#N)cc1 [reference compound] | – | – | 87% | 53% | – | – | – | – |
| CNC(=O)/C(=N/OC)c1cccc(C)c1CO/N=C(\C)c1c(F)cc(F)cc1C(F)(F)F [compound 357] | – | – | – | – | 13% | 1% | 18% | 0% |
| CO/N=C(/C(=O)OC)c1cccc(C)c1CO/N=C(\C)c1ccc(OC)cc1OC(F)(F)F [compound 373] | – | – | – | – | 77% | 27% | 100% | 38% |
| CNC(=O)/C(=N/OC)c1cccc(C)c1CO/N=C(\CC1CC1)c1cccc(C(F)(F)F)c1 [compound 234] | – | – | – | – | 53% | 18% | 53% | 15% |
| CO/N=C(/C(=O)OC)c1cccc(C)c1CO/N=C(\C)c1ccc(C)c(Cl)c1 [compound 163] | – | – | – | – | 20% | 1% | 47% | 9% |
| CO/N=C(/C(=O)OC)c1cccc(C)c1CO/N=C(\C)c1ccccc1-c1ccccc1 [compound 121] | – | – | – | – | 100% | 98% | 98% | 92% |
| CO/C=C(/C(=O)OC)c1cccc(C)c1CO/N=C(\C)c1c(F)cccc1C(F)(F)F [compound 390] | – | – | – | – | 22% | 0% | 18% | 2% |
| CNC(=O)/C(=N/OC)c1cccc(C)c1CO/N=C(\C)c1cccc(C2CC2(Cl)Cl)c1 (stereo not shown) [compound 75] | – | – | – | – | 8% | 0% | 13% | 1% |
| CNC(=O)/C(=N/OC)c1cccc(C)c1CO/N=C(\COC)c1ccccc1 [compound 295] | – | – | – | – | 2% | 0% | 11% | 0% |
| CO/N=C(/C(=O)OC)c1ccccc1CO/N=C(\C)c1cccc(C)c1 [reference compound] | – | – | 93% | 83% | – | – | – | – |
| CO/N=C(/C(=O)OC)c1ccccc1CO/N=C(\C)c1ccccc1F [reference compound] | – | – | 83% | 77% | – | – | – | – |
| CO/N=C(/C(=O)OC)c1cccc(C)c1CO/N=C(\C)c1ccc(C#N)cc1C(F)(F)F [compound 423] | – | – | – | – | 100% | 57% | 93% | 53% |
| CNC(=O)/C(=N/OC)c1cccc(C)c1CO/N=C(\C)c1c(F)cccc1OC(F)(F)F [compound 325] | – | – | – | – | 24% | 4% | 22% | 1% |
| CNC(=O)/C(=N/OC)c1cccc(C)c1CO/N=C(\C)c1c(Cl)ccc(F)c1OC(F)(F)F [compound 440] | – | – | – | – | 93% | 23% | 73% | 23% |
